We go through two molecules from patent publication US20230250055A1, “PROCESS OF MAKING N,N-DIACETYL-L-CYSTINE DISODIUM SALT FROM CYSTINE AND ACETYL CHLORIDE IN METHANOL IN THE PRESENCE OF SODIUM HYDROXIDE” (Conopco, Inc., d/b/a UNILEVER, priority 2020, published 2023).

The test system of series [1] is skin cells. Put plainly: potentiating glutathione synthesis within skin cells. It is filed as cell-based. The conditions noted are these: compared with cystine.
Series [2] is described as follows: solubility of NDAC relative to cystine. Format: physicochemical.
The conditions of series [3]: organic solvents such as alcohols, ethers, esters, ketones; cited from earlier work.

On to `CC(=O)N[C@@H](CSSC[C@H](NC(C)=O)C(=O)O)C(=O)O` [NDAC, N,N′-diacetyl-L-cystine], for which the “performance for potentiating glutathione synthesis within skin cells” value in series [1] is given as “comparable to that of cystine”. Also, in series [2], the “solubility compared with cystine” value is “more soluble”.
As for `N[C@@H](CSSC[C@H](N)C(=O)O)C(=O)O` [cystine, L-Cystine], the “solubility in organic solvents” value in series [3] is recorded as “practically insoluble”.
